Data set [1] has as its system neuronal uptake of noradrenaline. Briefly: Inhibition of uptake of 3H-NA in brain slices after in vivo (i.p.) administration. Further details: species or system mouse. Here is the method: (§1) It is not possible by experimental means to induce depressions in laboratory animals. In order to evaluate a possible anti-depressive effect of new substances biochemicalpharmacological test methods must be resorted to. One such method, which seems to give a good indication of the potential anti-depressive effects of the test substances, is described in Europ.
(§2) The test substances were administered intraperitoneally half an hour before the animals were killed. […] The incubation time was 5 minutes with 5 minutes of preincubation before the labelled amines were added. The slices were dissolved in Soluene® and the amounts of radio-active amines taken up were determined by liquid scintillation. […] Active uptake is defined as that part of the radioactive uptake which is inhibited by a high concentration of cocaine.

The conditions of data set [2]: cited from earlier work.
For data set [3], the system named is neuronal uptake of noradrenaline. Briefly: Inhibition of uptake of 3H-NA in vitro in slices of mouse midbrain. The note with it: in words; in vitro or in vivo not stated. The class given is cell-based. Here is the method: as §1, §2
(§3) In the in vitro method, slices of mouse midbrain were preincubated for 5 minutes with a solution of the compound to be tested and then incubated as described above.

Data set [4] concerns neuronal uptake of 5-hydroxytryptamine. Briefly: Inhibition of uptake of 14C-5-HT in vitro in slices of mouse midbrain. The class given is cell-based. Here is the method:
as §1, §2, §3

The conditions of data set [5]: literature / prior patents; cited from earlier work.
The test system of data set [6] is neuronal uptake of 5-hydroxytryptamine. Briefly: Inhibition of uptake of 14C-5-HT in brain slices after in vivo (i.p.) administration. More on the design: species or system mouse. The note with it: in words. Here is the method: as §1, §2

pEC50: −log10 of the molar value. Counter-ions that a name gives are not always drawn. Like-named read-outs stand apart in the source and are kept apart here. A value given as a limit tells only on which side of the number the result lay.

With `CNC/C=C(/c1ccc(Br)cc1)c1cccnc1` [H Z oxalate, (Z)-3-(4-bromophenyl)-3-(3-pyridyl)-N-methyl-allylamine], in data set [1] (Mus musculus, ip, 0.5 h, i.p., half an hour before killing, mouse midbrain slices, dose for 50 percent decrease of active uptake), the 50% effect level (ED50) was put at a dose of 102 µmol/kg.

As to `CN(C)CCC=C1c2ccccc2CCc2ccccc21` [amitriptyline], the side effects entry in data set [2] (in vivo) is “orthostatism, anticholinergic effects and above all, an arrhythmogenic i.e. heart arrhythmia developing effect”. The “start of the antidepressive effect” value in data set [2] (therapeutic use) is listed as “does not start until some weeks after treatment”.

As for `CNCCC=C1c2ccccc2CCc2ccccc21` [nortriptyline], the side effects entry in data set [2] (therapeutic use, arrhythmogenic in large doses to old patients) was “orthostatism, anticholinergic effects and above all, an arrhythmogenic i.e. heart arrhythmia developing effect”. The “start of the antidepressive effect” value in data set [2] (therapeutic use) is on record as “does not start until some weeks after treatment”.

In the case of `CNC/C=C(\c1ccc(Br)cc1)c1cccnc1` [E-form of the compound of the invention, (E)-3-(4-bromophenyl)-3-(3-pyridyl)-N-methyl-allylamine], the “preferential inhibition of noradrenaline uptake” value in data set [3] is “primarily inhibits the uptake of noradrenaline”.

As for `CNCC=C(c1ccc(Br)cc1)c1cccnc1` [H mixture oxalate, N-methyl-3-(4-bromophenyl)-3-(3-pyridyl)allylamine oxalate], the pEC50 (usually −log10 of the EC50, conventionally taken in molar units) in data set [4] (Mus musculus, mouse midbrain slices, 5 min preincubation, 5 min incubation) is 6.30.

`CN(C)CC=C(c1ccccc1)c1ccccc1`: the antidepressive effect entry in data set [5] is listed as “have an antidepressive effect”.

In the case of `CNC/C=C(/c1ccc(Br)cc1)c1cccnc1` [H Z hydrochloride, (Z)-3-(4-bromophenyl)-3-(3-pyridyl)-N-methyl-allylamine], the inhibition – broadly, the share of the control response that was lost under treatment – at 101 µmol/kg in data set [1] (Mus musculus, ip, at the dose 101 μmole/kg i.p.) turned out to be 39%. For the same compound, the “Uptake of 3H-NA in vivo ED50” value in data set [1] (i.p., half an hour before killing, mouse midbrain slices, dose for 50 percent decrease of active uptake, 30 min) is more than 101 µmol/kg.

Regarding `CN(C)CCCN1c2ccccc2CCc2ccccc21` [imipramine], in data set [2] (in vivo), the side effects result is “orthostatism, anticholinergic effects and above all, an arrhythmogenic i.e. heart arrhythmia developing effect”. Besides, the “start of the antidepressive effect” value in data set [2] (therapeutic use) is reported as “does not start until some weeks after treatment”.

On to `CNC/C=C(/c1ccc(Br)cc1)c1cccnc1` [Z-form of the compound of the invention, (Z)-3-(4-bromophenyl)-3-(3-pyridyl)-N-methyl-allylamine], for which, in data set [4] (in words, tested as the hydrochloride), the “inhibition of the uptake of 5-HT in vitro, compared with prior art compounds” value is “more potent inhibitor of the uptake of 5-HT in vitro than any of the prior art compounds”. For the same compound, the “inhibition of the uptake of 5-HT in vivo, compared with prior art compounds” value in data set [6] is on record as “stronger inhibition of the uptake of 5-HT in vivo than do any of the prior art compounds tested”.

In the case of `CNCCCN1c2ccccc2CCc2ccccc21` [desipramine], the side effects result in data set [2] (in vivo) is “orthostatism, anticholinergic effects and above all, an arrhythmogenic i.e. heart arrhythmia developing effect”. In addition, the “start of the antidepressive effect” value in data set [2] (therapeutic use) was “does not start until some weeks after treatment”.

The record behind these values is US4102887A, “Intermediates used in the preparation of phenyl-pyridylamine derivatives” (priority 1974, dated 1978).
